Data published in ChEMBL document CHEMBL1143607, “Pyridinium-1-yl bisphosphonates are potent inhibitors of farnesyl diphosphate synthase and bone resorption” (J Med Chem, 2005).

Columns and labels:
Dictyostelium discoideum = assay: Inhibitory concentration against Dictyostelium discoideum cell growth; type: functional, organism-based, Fungi
[1] = Effective concentration against human Gamma delta T cells; type: functional, cell-based; conditions: t-cell
Mus musculus = species: Mus musculus; assay: In vitro inhibitory concentration against bone resorption in 17 day old fetal mouse metatarsals; type: functional

Compound | EC50 [1] [µM] | IC50 (Mus musculus) [µM] | IC50 (Dictyostelium discoideum) [µM]
O=P([O-])(O)C(O)(C[n+]1ccccc1)P(=O)(O)O (stereo unspecified) | 4.8 | 0.67 | 2.1
Nc1c[n+](CC(P(=O)([O-])O)P(=O)(O)O)ccn1 (stereo unspecified) |  | 0.22 | 
CCCCc1ccc[n+](CC(O)(P(=O)([O-])O)P(=O)(O)O)c1 (stereo unspecified) | 4.3 |  | 2.9
NCCCC(O)(P(=O)(O)O)P(=O)(O)O [ALENDRONIC ACID] | 32 | 0.29 | 
NCCC(O)(P(=O)(O)O)P(=O)(O)O [PAMIDRONIC ACID] | 43 | 1.6 | 
O=P(O)(O)C(O)(Cc1cccnc1)P(=O)(O)O [RISEDRONIC ACID] | 5 | 0.3 | 
O=P(O)(O)C(O)(Cn1ccnc1)P(=O)(O)O [ZOLEDRONIC ACID] | 5.4 | 0.034 | 2.9

Second part, led by results:

EC50 [1] [µM] | IC50 (Mus musculus) [µM] | Compound | IC50 (Dictyostelium discoideum) [µM]
150 |  | O=P([O-])(O)C(O)(C[n+]1ccc(Cc2ccccc2)cc1)P(=O)(O)O (stereo unspecified) | 12
4.4 |  | CCc1ccc[n+](CC(O)(P(=O)([O-])O)P(=O)(O)O)c1 (stereo unspecified) | 5.6
4.1 | 0.41 | O=P([O-])(O)C(O)(C[n+]1cccc(-c2ccccc2)c1)P(=O)(O)O (stereo unspecified) | 3.8
44 |  | Cc1cccc(Cc2ccc[n+](CC(O)(P(=O)([O-])O)P(=O)(O)O)c2)c1 (stereo unspecified) | 9.2
56 |  | O=P([O-])(O)C(O)(C[n+]1cccc2cc(Cl)ccc21)P(=O)(O)O (stereo unspecified) | 72
4.5 | 0.22 | Cc1ccc[n+](CC(O)(P(=O)([O-])O)P(=O)(O)O)c1 (stereo unspecified) | 1.5
2.5 |  | O=P([O-])(O)C(O)(C[n+]1cccc(-c2ccc(O)cc2)c1)P(=O)(O)O (stereo unspecified) | 2.9
2.7 | 0.075 | O=P([O-])(O)C(O)(C[n+]1cccc(F)c1)P(=O)(O)O (stereo unspecified) | 4.6
9.3 | 0.37 | COc1ccc[n+](CC(O)(P(=O)([O-])O)P(=O)(O)O)c1 (stereo unspecified) | 6
91 |  | O=P([O-])(O)C(O)(C[n+]1cccc(Cc2ccccc2)c1)P(=O)(O)O (stereo unspecified) | 11
30 |  | O=P([O-])(O)C(O)(C[n+]1ccc2ccccc2c1)P(=O)(O)O (stereo unspecified) | 20
